Source: US20080274998A1, “Disaccharide Molecules and Derivatives Thereof and Methods of Using Same” (YEDA RESEARCH AND DEVELOPMENT CO. LTD., priority 2004, published 2008)

B1: recombinant moesin: Recombinant human moesin residues 1-577, expressed in E. coli as GST fusion and cleaved with thrombin (protein, UniProt P26038 2-577, looked up)
Moesin: PKTISVRVTTMDAELEFAIQPNTTGKQLFDQVVKTIGLREVWFFGLQYQDTKGFSTWLKLNKKVTAQDVRKESPLLFKFRAKFYPEDVSEELIQDITQRLFFLQVKEGILNDDIYCPPETAVLLASYAVQSKYGDFNKEVHKSGYLAGDKLLPQRVLEQHKLNKDQWEERIQVWHEEHRGMLREDAVLEYLKIAQDLEMYGVNYFSIKNKKGSELWLGVDALGLNIYEQNDRLTPKIGFPWSEIRNISFNDKKFVIKPIDKKAPDFVFYAPRLRINKRILALCMGNHELYMRRRKPDTIEVQQMKAQAREEKHQKQMERAMLENEKKKREMAEKEKEKIEREKEELMERLKQIEEQTKKAQQELEEQTRRALELEQERKRAQSEAEKLAKERQEAEEAKEALLQASRDQKKTQEQLALEMAELTARISQLEMARQKKESEAVEWQQKAQMVQEDLEKTRAELKTAMSTPHVAEPAENEQDEQDENGAEASADLRADAMAKDRSEEERTTEAEKNERVQKHLKALTSELANARDESKKTANDMIHAENMRLGRDKYKTLRQIRQGNTKQRIDEFESM
modifications: GST tag removed by thrombin
notes: Recombinant human moesin residues 1-577, expressed in E. coli as GST fusion and cleaved with thrombin

Legend:
recombinant moesin = molecular target: T1, recombinant moesin (Homo sapiens, UniProt P26038); test: Binding of heparin-disaccharide to immobilized recombinant moesin (plate assay, anti-heparan sulfate mAb detection); conditions: plates coated with recombinant moesin or purified BSA, detection with anti-heparan sulfate mAb and anti-rat IgM Ab, duplicate
T1 construct: The plasmid pGEX-KG-human moesin residues 1-577 (pGhuMo); GST (cleaved yes); made in house; host or cells: Escherichia coli
Description: Following coating, DS-9392 was added to the plates, incubated and washed. Detection was performed using an anti-heparan sulfate mAb followed by an anti-rat IgM Ab. Each experiment was performed in duplicate. The results represent mean and SD.
The plasmid pGEX-KG-human moesin residues 1-577 (pGhuMo) (provided by Prof. Furthhmayer [Stanford, Calif.]) contains human moesin as a fusion protein to glutathione S-transferase (GST). Escherichia coli (E. coli) bacteria were transformed with pGhuMo and grown in L-broth containing penicillin (100 μg/ml). These bacteria were induced to express the fusion protein with 100 μM isopropyl β-D-thiogalactopyranoside (IPTG). The recombinant protein was bound to a glutathione-agarose column (Sigma) and cleaved with thrombin (Pharmacia; Piscataway, N.J.). The purified protein was dialyzed against PBS at 4° C. and stored at −70^cC. The purity and integrity of the protein were determined by size separation using SDS-polyaclrylamide gel electrophoresis (PAGE), Coomassie blue staining, and Western blotting with the anti-human moesin mAb clone 38/87. The protein was quantitated by densitometric analysis of recombinant moesin and known amounts of BSA, which were used to construct a standard curve.
Since moesin binds to heparin and heparan sulfate (1), disaccharide (DS) derived from heparin was also tested to see if it could also bind to moesin.

T cells = test: T cell adhesion to fibronectin-coated wells after DS pretreatment and activation; assay type: cell-based, human; conditions: T cells pretreated with DS at 1 ng/ml, 30 minutes; chemoattractants MIP-1β, SDF-1α or RANTES 20 ng/ml each
Description: T cells were pretreated with DS9392 (A), DS9267 or DS8892 (B), at 1 ng/ml, 30 minutes incubation for each, and were then seeded on fibronectin (FN)-coated microtiter wells and activated with either PMA (50 ng/ml), anti-CD3 mAb (15 μg/ml), IL-2 (10 IU/ml) or one of the chemoattractants, MIP-Iβ, SDF-Iα or RANTES (20 ng/ml each). T cell adhesion was then measured.
Human T cells were purified from the peripheral blood of healthy donors. Briefly, human peripheral blood was isolated on Ficoll gradients, washed, resuspended in PBS containing 3% heat-inactivated FCS (Bet Haemek, Israel), and incubated (45 min, 37° C., 7% CO2-humidified atmosphere) on nylon-wool columns (NovaMed; Jerusalem, Israel). Non-adherent cells were eluted and washed, and platelets were removed by centrifugation (700 rpm, 15 min, 18° C.). Residual monocytes were removed by incubation of the cells on tissue culture plates (2 h, 37° C.), after which non-adherent cells were collected. The CD3^+ content of these PBLs was >95%.
Without wishing to be limited by a single hypothesis, binding of the DS to moesin would appear to promote inhibition of T-cell adhesion and migration.

Jurkat cells = test: 51Cr-labeled Jurkat cell adhesion to fibronectin; assay type: cell-based; conditions: DS-9267 100 ng/ml; fibronectin 1 μg/ml; adherent cells determined after 30 minutes
Description: The amount of adherent cells was determined 30 minutes later. Non-adherent cells were washed away and the remaining bound cells were lysed. The radioactivity of lysates, representing the amount of fibronectin-adherent cells, was determined using a γ-counter. The results represent the percentage of cells that were bound to the wells from total cells that were added to each well.
Jurkat cells, a CD4+ T-lymphoma cell line, were maintained in medium consisted of RPMI 1640 (Bet Haemek, Israel), supplemented with 10% cosmic calf serum (HyClone Laboratories), 2 mM L-glutamin and 1% Pen-Strep (Bet Haemek, Israel), at 37° C., in an atmosphere of 5% CO2.
It was shown that certain heparin- and heparan sulfate-derived DS induced, in a dose-dependent manner, the adhesion of human T cells to both ECM and immobilized fibronectin (6). This adhesion appears to involve β1 integrin recognition and activation and is associated with specific intracellular activation pathways (6). Since moesin is expressed on T cells, antibody to moesin was examined for the potential to block the ability of DS to induce adhesion in T cells.

HT-29 cells = test: TNFα-induced IL-8 / IL-1β secretion from HT-29 cells (ELISA); assay type: cell-based; conditions: DS-9267 pre-incubated 30 min with increasing concentrations of recombinant human moesin; TNFα-stimulated HT-29 cells, 24 hours
Description: Following culture, the cells were pre-incubated for 30 minutes with either anti-moesin or control antibody (anti HSP-60). Then DS-9267 was added for 30 minutes, after which TNFα (200 ng/ml) was added and the cells were incubated for additional 20 hours. Subsequently, the supernatants were collected and the level of IL-8 was determined.
Following culture, the cells were supplemented with fresh medium and the DS-9267 which was pre-incubated for 30 minutes with recombinant moesin at the indicated concentrations was added to all cells except for the controls. The culture was continued for 24 hours. Subsequently, the supernatants were collected and assayed for the concentrations of IL-8 (A) and IL-1β (B).
Epithelial cells were grown as confluent monolayer's in 24-well tissue culture plates. […] Following culture, the supernatants were harvested and analyzed for cytokine secretion. […]
IL-8 concentration was measured by ELISA. […] IL-1β concentration was measured by an ELISA kit (Genzyme, Cambridge, Mass.) according to the manufacturer's instructions.
It has been shown that disaccharide molecules derived from heparin and from heparan sulfate can inhibit the secretion of IL-8 and IL-1β by HT-29 cells. […] Subsequently, the cells were treated with TNFα and the secretion of IL-8 was assessed. […]

T1 sequence (P26038 whole entry, the tested form may be a part): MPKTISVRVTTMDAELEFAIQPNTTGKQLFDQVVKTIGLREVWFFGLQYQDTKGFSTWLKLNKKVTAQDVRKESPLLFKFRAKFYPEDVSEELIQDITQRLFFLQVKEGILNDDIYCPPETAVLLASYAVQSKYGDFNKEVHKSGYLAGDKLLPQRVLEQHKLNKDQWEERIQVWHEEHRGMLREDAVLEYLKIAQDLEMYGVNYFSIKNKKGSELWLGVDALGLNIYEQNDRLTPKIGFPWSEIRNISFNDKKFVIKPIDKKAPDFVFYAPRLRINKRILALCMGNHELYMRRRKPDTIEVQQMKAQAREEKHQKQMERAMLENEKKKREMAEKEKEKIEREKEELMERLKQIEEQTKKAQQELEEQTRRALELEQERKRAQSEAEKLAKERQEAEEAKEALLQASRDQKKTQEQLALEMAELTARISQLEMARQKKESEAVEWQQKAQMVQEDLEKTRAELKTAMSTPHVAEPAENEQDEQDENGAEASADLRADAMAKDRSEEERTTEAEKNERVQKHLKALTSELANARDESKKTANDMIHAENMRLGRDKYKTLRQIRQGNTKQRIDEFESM

Row | Molecule | binding to immobilized recombinant moesin versus BSA (recombinant moesin) | binding to immobilized recombinant moesin versus BSA (recombinant moesin; listed as Heparin-DS) | chemokine-mediated T cell adhesion to fibronectin (T cells) | Jurkat cell adhesion to fibronectin (Jurkat cells) | effect of recombinant moesin on the inhibitory effect of DS on IL-8 and IL-1β secretion (HT-29 cells)
1 | O=C(O)C1=CC(O)C(OS(=O)(=O)O)C(OC2C(CO)OC(O)C(NS(=O)(=O)O)C2O)O1 (stereo not drawn) [DS-9392, 2-O-Sulfate-4-deoxy-4-en-iduronic acid-(alpha-1,4)-2-deoxy-2-N-sulfateglucosamine] | The difference was significant | binds to moesin, and not to BSA | specifically inhibits chemokine-mediated T cell adhesion |  | 
2 | O=C(O)C1=CC(O)C(OS(=O)(=O)O)C(OC2C(COS(=O)(=O)O)OC(O)C(NS(=O)(=O)O)C2O)O1 (stereo not drawn) [DS-9267, 2-O-sulfate-4-deoxy-4-en-iduronic acid-(alpha.-1,4)-2-deoxy-2-N-sulfate-6-O-sulfateglucosamine] |  |  | specifically inhibits chemokine-mediated T cell adhesion | induced | 
3 | B1 |  |  |  |  | antagonized the inhibitory effect of the DS in a dose-dependent manner
